In US7709645B2, “Pyrrolo-pyridine kinase modulators” (SGX Pharmaceuticals, Inc., priority 2004, dated 2010):

Biological target: T1, Autophosphorylated AurA kinase (Homo sapiens, UniProt O14965)
T1 construct: made in house; host or cells: Sf9 insect cells
T1 sequence (O14965 1-403): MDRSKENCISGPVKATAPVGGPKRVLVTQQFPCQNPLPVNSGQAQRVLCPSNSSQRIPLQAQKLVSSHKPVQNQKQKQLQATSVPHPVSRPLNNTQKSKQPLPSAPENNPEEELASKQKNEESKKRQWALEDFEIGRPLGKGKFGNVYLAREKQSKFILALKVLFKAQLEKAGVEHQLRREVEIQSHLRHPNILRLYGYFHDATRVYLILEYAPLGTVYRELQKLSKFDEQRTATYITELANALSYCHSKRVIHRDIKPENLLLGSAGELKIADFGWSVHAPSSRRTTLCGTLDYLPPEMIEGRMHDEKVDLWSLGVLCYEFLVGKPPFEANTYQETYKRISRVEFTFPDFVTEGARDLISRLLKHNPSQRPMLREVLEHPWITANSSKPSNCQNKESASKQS
Assay: AurA Bioassay (luminescence-based enzyme assay, Kinase-Glo)
Type: biochemical
Details: 10 μM ATP
From the text: In addition to the c-Abl PK/LDH coupled assay (above), homogeneous luminescence-based inhibitor screening assays were developed for c-Abl, MET, AurA, and PDK1 kinases (among others). Each of these assays made use of an ATP depletion assay (Kinase-Glo™, Promega Corporation, Madison, Wis.) to quantitate kinase activity. The Kinase-Glo™ format uses a thermostable luciferase to generate luminescent signal from ATP remaining in solution following the kinase reaction. The luminescent signal is inversely correlated with the amount of kinase activity.
Materials: Kemptide peptide substrate=LRRASLG (SEQ ID NO:2) (Biopeptide, San Diego, Calif.), ATP (Sigma Cat#A-3377, FW=551), HEPES buffer, pH 7.5, 10% Brij 35 (Calbiochem Cat#203728), MgCl2, Staurosporine (Streptomyces sp. Sigma Cat#85660-1MG), white Costar 384-well flat bottom plate (VWR Cat#29444-088), Autophosphorylated AurA kinase (see below), Kinase-Glo™ (Promega Cat#V6712).
Stock Solutions: 10 mM Kemptide peptide (7.72 mg/ml in water), stored at −20° C.; 100 mM HEPES buffer+0.015% Brij 35, pH 7.5 (5 ml 1M HEPES stock+75 μL 10% Brij 35+45 ml miliQH2O); 10 mM ATP (5.51 mg/ml in dH2O) stored at −20° C. (diluted 50 μl into total of 10 ml miliQH2O daily=50 μM ATP working stock); 100 mM MgCl2; […] Staurosporine, 2× Kinase-Glo™ reagent (made fresh or stored at −20° C.).
AurA Autophosphorylation Reaction: ATP and MgCl2 were added to 1-5 mg/ml AurA at final concentrations of 10 mM and 100 mM, respectively. The autophosphorylation reaction was incubated at 21° C. for 2-3 h. The reaction was stopped by the addition of EDTA to a final concentration of 50 mM, and samples were flash frozen with liquid N2 and stored at −80° C.
Standard Assay Setup for 384-well format (20 μl kinase reaction, 40 μl detection reaction): 10 mM MgCl2; 0.2 mM Kemptide peptide; […] test compound (in DMSO); 0.3 μg/ml Autophosphorylated AurA kinase; 10 μM ATP; 100 mM HEPES+0.015% Brij buffer. Positive controls contained DMSO with no test compound. Negative controls contained 5 μM staurosporine. The kinase reactions were initiated at time t=0 by the addition of ATP. Kinase reactions were incubated at 21° C. for 45 min, then 20 μl of Kinase-Glo™ reagent were added to each well to quench the kinase reaction and initiate the luminescence reaction. After a 20 min incubation at 21° C., the luminescence was detected in a plate-reading luminometer.
The Sf9 insect cell pellets (˜18 g) produced from 6 L of cultured cells expressing human Aurora-2 were resuspended in 50 mM Na Phosphate pH 8.0, 500 mM NaCl, 10% glycerol, 0.2% n-octyl-β-D-glucopyranoside (BOG) and 3 mM β-Mercaptoethanol (BME). One tablet of Roche Complete, EDTA-free protease inhibitor cocktail (Cat# 1873580) and 85 units Benzonase (Novagen Cat#70746-3)) were added per 1 L of original culture. Pellets were resuspended in approximately 50 ml per 1 L of original culture and were then sonicated on ice with two 30-45 sec bursts (100% duty cycle). Debris was removed by centrifugation and the supernatant was passed through a 0.8 μm syringe filter before being loaded onto a 5 ml Ni^2+ HiTrap column (Pharmacia). The column was washed with 6 column volumes of 50 mM Na Phosphate pH 8.0, 500 mM NaCl, 10% glycerol, 3 mM BME. The protein was eluted using a linear gradient of the same buffer containing 500 mM Imidazole. The eluant (24 ml) was cleaved overnight at 4° C. in a buffer containing 50 mM Na Phosphate pH 8.0, 500 mM NaCl, 10% glycerol, 3 mM BME and 10,000 units of TEV (Invitrogen Cat# 10127-017). […]

Structure (SMILES)	IC50 [nM]
COc1ccccc1-c1c[nH]c2ncc(-c3ccc(S(N)(=O)=O)s3)cc12 [AE11]	500 to 5000
COc1ccccc1-c1c[nH]c2ncc(-c3cccc(S(C)(=O)=O)c3)cc12 [AE13]	500 to 5000

Other lines, results leading:

IC50 [nM]	Structure (SMILES)
500 to 5000	CNC(=O)c1cncc(-c2cnc3[nH]cc(-c4ccccc4OC)c3c2)c1 [AE1]
500 to 5000	COc1ccccc1-c1c[nH]c2ncc(-c3ccc[nH]3)cc12 [AE67]
500 to 5000	COCCOc1ccc(-c2cnc3[nH]cc(-c4ccccc4OC)c3c2)cc1OCCOC [AE68]

Tested on: Ba/F3-T315I cells
Assay: Ba/F3-T315I XTT Assay (cell survival)
Type: cell-based
Details: 72 hours
Procedure: MV4-11 and THP cells were maintained in Iscove's Modified Dulbecco's Medium supplemented with 10% fetal bovine serum (FBS) and penicillin/streptomycin, Ba/F3 cells were maintained in RPMI 1640 supplemented with 10% FBS, penicillin/streptomycin and 5 ng/ml recombinant mouse IL-3.
Compounds were tested in the following assays in duplicate.
96-well XTT assay: Cells (e.g. BaF3 315I, M351I, or E255K cells) were grown in growth media containing various concentrations of compounds (duplicates) on a 96-well plate for 72 hours at 37° C. The starting cell number was 5000-8000 cells per well and volume was 120 μl. At the end of the 72-hour incubation, 40 μl of XTT labeling mixture (50:1 solution of sodium 3′-[1-(phenylamino-carbonyl)-3,4-tetrazolium]-bis(4-methoxy-6-nitro) benzene sulfonic acid hydrate and Electron-coupling reagent: PMS (N-methyl dibenzopyrazine methyl sulfate) were added to each well of the plate. After an additional 2-6 hours of incubation at 37° C., the absorbance reading at 405 nm with background correction at 650 nm was measured with a spectrophotometer.

Structure (SMILES)	IC50 [nM]
COc1ccccc1-c1c[nH]c2ncc(-c3ccc4[nH]cc(CC(=O)O)c4c3)cc12 [AE10]	< 100
